pIC50: −log10 of the molar value.
Molecular target: T1, human M5 receptors (hM5) (Homo sapiens, UniProt P08912)
T1 construct: expressed in transfected cells
T1 sequence (P08912 1-532): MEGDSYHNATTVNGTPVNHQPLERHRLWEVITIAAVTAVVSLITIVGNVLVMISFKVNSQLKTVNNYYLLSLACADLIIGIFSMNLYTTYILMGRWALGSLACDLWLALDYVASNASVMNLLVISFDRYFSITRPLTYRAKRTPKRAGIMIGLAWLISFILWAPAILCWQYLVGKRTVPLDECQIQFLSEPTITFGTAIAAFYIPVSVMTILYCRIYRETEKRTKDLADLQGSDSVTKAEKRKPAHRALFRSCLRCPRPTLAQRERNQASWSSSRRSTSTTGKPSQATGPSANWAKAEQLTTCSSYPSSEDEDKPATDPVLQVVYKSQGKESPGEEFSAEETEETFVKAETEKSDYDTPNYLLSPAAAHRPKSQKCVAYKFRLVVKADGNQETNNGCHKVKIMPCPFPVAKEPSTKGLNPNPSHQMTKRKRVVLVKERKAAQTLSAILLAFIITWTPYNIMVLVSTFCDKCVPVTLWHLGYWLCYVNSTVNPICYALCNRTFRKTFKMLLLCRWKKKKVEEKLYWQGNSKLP
Assay: Cell-based functional calcium mobilization assay of mAChR M5 activity (inhibition of EC80 acetylcholine response) in CHO cells
Details: CHO cells stably expressing hM5; for pIC50: calcium flux (Fluo-4), EC80 acetylcholine addition; for EC80 MIN: minimum of EC80 acetylcholine response, normalized to maximum acetylcholine response
Method in brief: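 CHO cells stably expressing human M5, loaded with Fluo-4 AM in HBSS/20 mM HEPES/2.5 mM probenecid pH 7.4. Compound added 140 s before acetylcholine EC20, then EC80 added 125 s later. Calcium flux normalized to maximal acetylcholine response; IC50 from ten-point curves in the EC80 window.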

Which results are given for `O=C(Nc1ccc2scnc2c1)[C@@H]1CCN(S(=O)(=O)c2ccc3c(c2)CCO3)C1` [Compound 24, (R)-N-(benzo[d]thiazol-5-yl)-1-((2,3-dihydrobenzofuran-5-yl)sulfonyl)pyrrolidine-3-carboxamide]?
pIC50: 7.49; EC80 MIN: 2%

What does the source list for `Cn1cnc2cc(S(=O)(=O)N3CCC(C(=O)Nc4ccc5scnc5c4)CC3)ccc21` [Compound 27, N-(benzo[d]thiazol-5-yl)-1-((1-methyl-1H-benzo[d]imidazol-5-yl)sulfonyl)piperidine-4-carboxamide]?
pIC50: < 5.00; EC80 MIN: 42%

How did the pIC50 turn out when `Cn1nnc2cc(S(=O)(=O)N3CCC(C(=O)Nc4ccc5scnc5c4)CC3)ccc21` [Compound 28, N-(benzo[d]thiazol-5-yl)-1-((1-methyl-1H-benzo[d][1,2,3]triazol-5-yl)sulfonyl)piperidine-4-carboxamide] was run?
Its pIC50 is < 5.00.

And the “EC80 MIN” value?
Its value is 9%.

Which results are given for `O=C(Nc1ccc2scnc2c1)C1CCN(S(=O)(=O)c2ccc3c(c2)OC(F)(F)O3)CC1` [Compound 29, N-(benzo[d]thiazol-5-yl)-1-((2.2-difluorobenzo[d][1,3]dioxol-5-yl)sulfonyl)piperidine-4-carboxamide]?
pIC50: < 5.00; EC80 MIN: 60%

With `O=C(Nc1ccc2scnc2c1)C1CCN(S(=O)(=O)c2cccc(OC(F)(F)F)c2)CC1` [Compound 30, N-(benzo[d]thiazol-5-yl)-1-((3-(trifluoromethoxy)phenyl)sulfonyl)piperidine-4-carboxamide] as the compound, how does the pIC50 read?
Its pIC50 is < 5.00.

What about the “EC80 MIN” value of the same compound?
Its value is 57%.

`Cc1cccc(S(=O)(=O)N2CCC(C(=O)Nc3ccc4scnc4c3)CC2)c1` [Compound 31, N-(benzo[d]thiazol-5-yl)-1-(m-tolylsulfonyl)piperidine-4-carboxamide] was tested. Which pIC50 did it give?
Its pIC50 is 5.04.

And the “EC80 MIN” value?
The value was 5%.

How did the pIC50 turn out when `O=C(Nc1ccc2scnc2c1)C1CCN(S(=O)(=O)c2ccc(F)c(F)c2)CC1` [Compound 32, N-(benzo[d]thiazol-5-yl)-1-((3,4-difluorophenyl)sulfonyl)pip eridine-4-carboxamide] was run?
Its pIC50 is 5.71.

What about the “EC80 MIN” value of the same compound?
The value was 3%.

Which results are given for `Cc1ccccc1S(=O)(=O)N1CCC(C(=O)Nc2ccc3scnc3c2)CC1` [Compound 33, N-(benzo[d]thiazol-5-yl)-1-(o-tolylsulfonyl)piperidine-4-carboxamide]?
pIC50: < 5.00; EC80 MIN: 6%

With `COc1cccc(S(=O)(=O)N2CCC(C(=O)Nc3ccc4scnc4c3)CC2)c1` [Compound 34, N-(benzo[d]thiazol-5-yl)-1-((3-methoxyphenyl)sulfonyl)pi pendine-4-carboxamide] as the compound, how does the pIC50 read?
The pIC50 was < 5.00.

And the “EC80 MIN” value?
The value was 18%.

`Cc1cc(S(=O)(=O)N2CCC(C(=O)Nc3ccc4scnc4c3)CC2)cnc1Cl` [Compound 35, N-(benzo[d]thiazol-5-yl)-1-((6-chloro-5-methylpyridin-3-yl)sulfonyl)piperidine-4-carboxamide] was tested. Which pIC50 did it give?
The pIC50 was 7.08.

What about the “EC80 MIN” value of the same compound?
Its value is 3%.

What does the source list for `Cn1ncc2cc(S(=O)(=O)N3CCC(C(=O)Nc4ccc5scnc5c4)CC3)cnc21` [Compound 36, N-(benzo[d]thiazol-5-yl)-1-((1-methyl-1H-pyrazolo[3,4-b]pyridin-5-yl)sulfonyl)piperidine-4-carboxamide]?
pIC50: < 5.00; EC80 MIN: 40%

`Cc1noc2ncc(S(=O)(=O)N3CCC(C(=O)Nc4ccc5scnc5c4)CC3)cc12` [Compound 37, N-(benzo[d]thiazol-5-yl)-1-((3-methylisoxazolo[5,4-b]pyridin-5-yl)sulfonyl)piperidine-4-carboxamide] was tested. Which pIC50 did it give?
Its pIC50 is < 5.00.

And the “EC80 MIN” value?
Its value is 60%.

How did the pIC50 turn out when `O=C(Nc1ccc2scnc2c1)[C@@H]1CCN(S(=O)(=O)c2cccnc2)C1` [Compound 39, (R)-N-(benzo[d]thiazol-5-yl)-1-(pyridin-3-ylsulfonyl)pyrrolidine-3-carboxamide] was run?
Its pIC50 is < 5.00.

And the “EC80 MIN” value?
The value was 27%.

With `O=C(Nc1ccc2scnc2c1)C1CCN(S(=O)(=O)c2cc3c(cc2F)OCC3)CC1` [Compound 41, N-(benzo[d]thiazol-5-yl)-1-((6-fluoro-2,3-dihydrobenzofuran-5-yl)sulfonyl)piperidine-4-carboxamide] as the compound, how does the pIC50 read?
Its pIC50 is 7.34.

What about the “EC80 MIN” value of the same compound?
The value was 2%.

`O=C(Nc1ccc2scnc2c1)[C@@H]1CCN(S(=O)(=O)c2cc3c(cc2F)OCC3)C1` [Compound 42, (R)-N-(benz[d]thiazol-5-yl)-1-((6-fluoro-2,3-dihydrobenzofuran-5-yl)sulfonyl)pyrrolidine-3-carboxamide] was tested. Which pIC50 did it give?
The pIC50 was 7.41.

What about the “EC80 MIN” value of the same compound?
The value was 2%.

With `O=C(Nc1ccc2scnc2c1)C1CCN(S(=O)(=O)c2cccc3ncccc23)CC1` [Compound 46, N-(benzo[d]thiazol-5-yl)-1-(quinolin-5-ylsulfonyl)piperidine-4-carboxamide] as the compound, how does the pIC50 read?
The pIC50 was < 5.00.

What about the “EC80 MIN” value of the same compound?
Its value is 37%.

How did the pIC50 turn out when `Cc1nc2ccc(S(=O)(=O)N3CCC(C(=O)Nc4ccc5scnc5c4)CC3)cc2s1` [Compound 47] was run?
Its pIC50 is < 5.00.

And the “EC80 MIN” value?
The value was 47%.

With `O=C(Nc1ccc2scnc2c1)C1CCN(S(=O)(=O)c2ccc3c(c2)OCCO3)CC1` [Compound 48, N-(benzo[d]thiazol-5-yl)-1-((2.3-dihydrobenzo[b][1,4]dioxin-6-yl)sulfonyl)piperidine-4-carboxamide] as the compound, how does the pIC50 read?
Its pIC50 is 5.75.

What about the “EC80 MIN” value of the same compound?
The value was 5%.

`Cc1cc2c(cc1S(=O)(=O)N1CCC(C(=O)Nc3ccc4scnc4c3)CC1)OCO2` [Compound 49, N-(benzo[d]thiazol-5-yl)-1-((6-methylbenzo[d][1,3]dioxol-5-yl)sulfonyl)pipcridinc-4-carboxamide] was tested. Which pIC50 did it give?
The pIC50 was < 5.00.

And the “EC80 MIN” value?
The value was 8%.

With `O=C(Nc1ccc2scnc2c1)C1CCN(S(=O)(=O)c2ccc3c(c2)CCCO3)CC1` [Compound 50, N-(benzo[d]thiazol-5-yl)-1-(chroman-6-ylsulfonyl)pipcridinc-4-carboxamide] as the compound, how does the pIC50 read?
Its pIC50 is 5.73.

And the “EC80 MIN” value?
The value was 4%.

What does the source list for `N#Cc1cccc(S(=O)(=O)N2CCC(C(=O)Nc3ccc4scnc4c3)CC2)c1` [Compound 51, N-(benzo[d]thiazol-5-yl)-1-((3-cyanophenyl)sulfonyl)piperi dine4-carboxamide]?
pIC50: 5.45; EC80 MIN: 38%

Which results are given for `COc1ccccc1S(=O)(=O)N1CCC(C(=O)Nc2ccc3scnc3c2)CC1` [Compound 52, N-(benzo[d]thiazol-5-yl)-1-((2-methoxyphenyl)sulfonyl)pi peridine-4-carboxamide]?
pIC50: < 5.00; EC80 MIN: 24%

How did the pIC50 turn out when `O=C(Nc1ccc2scnc2c1)C1CCN(S(=O)(=O)c2ccccc2OC(F)(F)F)CC1` [Compound 53, N-(benzo[d]thiazol-5-yl)-1-((2-(trifluoromethoxy)phenyl)sulfonyl)piperidine-4-carboxamide] was run?
The pIC50 was 5.39.

What about the “EC80 MIN” value of the same compound?
The value was 4%.

With `O=C(Nc1ccc2scnc2c1)C1CCN(S(=O)(=O)c2cccc(C(F)(F)F)c2)CC1` [Compound 54, N-(benzo[d]thiazol-5-yl)-1-((3-(trifluoromethyl)phenyl)sulfonyl)piperidine-4-carboxamide] as the compound, how does the pIC50 read?
The pIC50 was < 5.00.

And the “EC80 MIN” value?
The value was 51%.

How did the pIC50 turn out when `O=C(Nc1ccc2scnc2c1)[C@H]1CCN(S(=O)(=O)c2ccc3c(c2)CCO3)C1` [Compound 55, (S)-N-(benzo[d]thiazol-5-yl)-1-((2,3-dihydrobenzofuran-5-yl)sulfonyl)pyrrolidine-3-carboxamide] was run?
The pIC50 was 6.44.

What about the “EC80 MIN” value of the same compound?
The value was 3%.

With `O=C(Nc1ccc2scnc2c1)[C@H]1CCN(S(=O)(=O)c2cc3c(cc2F)OCC3)C1` [Compound 56, (S)-N-(benzo[d]thiazol-5-yl)-1-((6-fluoro-2.3-dihydrobenzofuran-5-yl)sulfonyl)pyrrolidine-3-carboxamide] as the compound, how does the pIC50 read?
The pIC50 was 6.14.

What about the “EC80 MIN” value of the same compound?
Its value is 2%.

`O=C(Nc1ccc2scnc2c1)C1CCN(S(=O)(=O)c2ccc3c(c2Br)CCO3)CC1` [Compound 57, N-(benzo[d]thiazol-5-yl)-1-((4-bromo-2,3-dihydrobenzofuran-5-yl)sulfonyl)piperidine-4-carboxamide] was tested. Which pIC50 did it give?
The pIC50 was 6.48.

What about the “EC80 MIN” value of the same compound?
The value was 2%.

`O=C(Nc1ccc2scnc2c1)C1CCN(S(=O)(=O)c2ccc(Br)c3c2OCC3)CC1` [Compound 58, N-(benzo[d]thiazol-5-yl)-1-((4-bromo-2,3-dihydrobenzofuran-7-yl)sulfonyl)piperidine-4-carboxamide] was tested. Which pIC50 did it give?
The pIC50 was < 5.00.

What about the “EC80 MIN” value of the same compound?
Its value is 34%.

How did the pIC50 turn out when `O=C(Nc1ccc2scnc2c1)[C@@H]1CCN(S(=O)(=O)c2ccc3c(c2Br)CCO3)C1` [Compound 59, (R)-N-(benzo[d]thiazol-5-yl)-1-((4-bromo-2,3-dihydrobenzofuran-5-yl)sulfonyl)pyrrolidine-3-carboxamide] was run?
Its pIC50 is 6.31.

What about the “EC80 MIN” value of the same compound?
The value was 2%.

How did the pIC50 turn out when `O=C(Nc1ccc2scnc2c1)[C@@H]1CCN(S(=O)(=O)c2ccc(Br)c3c2OCC3)C1` [Compound 60, (R)-N-(benzo[d]thiazol-5-yl)-1-((4-bromo-2,3-dihydrobenzofuran-7-yl)sulfonyl)pyrrolidine-3-carboxamide] was run?
Its pIC50 is < 5.00.

And the “EC80 MIN” value?
Its value is 31%.

With `O=C(Nc1ccc2scnc2c1)C1CCN(S(=O)(=O)c2c(Cl)ccc3nonc23)CC1` [Compound 61, N-(benzo[d]thiazol-5-yl)-1-((5-chlorobenzo[c][1,2,5]oxadiazol-4-yl)sulfonyl)piperidine-4-carboxamide] as the compound, how does the pIC50 read?
The pIC50 was < 5.00.

And the “EC80 MIN” value?
Its value is 60%.
